Measurements taken from patent US20260365670A1, “EGFR INHIBITORS AND USES THEREOF” (DIZAL (JIANGSU) PHARMACEUTICAL CO., LTD., priority 2022, published 2026).
Read-outs that look alike come from different tables or passages of the source.

Columns and labels:
A-431 = experiment: Cell proliferation GI50, A-431 cells (Table 6); type: cell-based
EGFR (d746-750 C797S) = biological target: T1, EGFR (d746-750 C797S) (Homo sapiens, UniProt P00533, C797S/DEL746-750); experiment: Inhibition of EGFR (d746-750 C797S) biochemical enzymatic activity (HTRF); conditions: EGFR Del19-C797S, 1 mM ATP, 1 h, room temperature, read-out: IC50 (nM) @Del19-C797S
T1 construct: purchased signalchem
Method in brief: (§1)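 Read-out is the HTRF 665/615 nm ratio (excitation 320 nm), taken as proportional to kinase activity after a 1 h room-temperature reaction with 1 mM ATP and 1 μM biotinylated TK substrate. IC50 values derive from four-parameter logistic fitting.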

EGFR wild type = biological target: T2, EGFR wild type (Homo sapiens, UniProt P00533); experiment: Inhibition of EGFR wild type biochemical enzymatic activity (HTRF); conditions: EGFR WT, 1 mM ATP, 1 h, room temperature, read-out: IC50 (nM) @WT
T2 construct: purchased Carna Bio
Method in brief: as §1

[1] = biological target: T3, EGFR[T790M/C797S/d746-750] (Homo sapiens, UniProt P00533, C797S/DEL746-750/T790M); experiment: Inhibition of EGFR[T790M/C797S/d746-750] biochemical enzymatic activity (HTRF); conditions: EGFR T790M-C797S-Del19, 1 mM ATP, 1 h, room temperature, read-out: IC50 (nM) @T790M - C797S - Del19
T3 construct: purchased Carna Bio
Method in brief: as §1

[2] = system: Ba/F3 cells expressing EGFR mutations; experiment: Cell proliferation assay, Ba/F3 cells expressing EGFR mutations (CellTiter-Glo, 72 hours); type: cell-based; conditions: CellTiter-Glo
Method in brief: (§2)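 Ba/F3 cells carrying EGFR mutants (5000/well) or PC-9 cells (500/well) in RPMI1640 were dosed with compound series after overnight attachment and grown 72 h. Viability read by CellTiter-Glo, with day-0 counts subtracted; GI50 from curve fits of % proliferation versus DMSO control.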

EGFR[T790M/C797S/L858R] = biological target: T4, EGFR[T790M/C797S/L858R] (Homo sapiens, UniProt P00533, C797S/L858R/T790M); experiment: Inhibition of EGFR[T790M/C797S/L858R] biochemical enzymatic activity (HTRF); conditions: EGFR T790M-C797S-L858R, 1 mM ATP, 1 h, room temperature, read-out: IC50 (nM) @T790M- C797S - L858R
T4 construct: purchased Carna Bio
Method in brief: as §1

EGFR Exon19Del/T790M = biological target: T5, EGFR Exon19Del/T790M (Homo sapiens, UniProt P00533, DEL746-750/T790M); experiment: Inhibition of EGFR Exon19Del/T790M biochemical enzymatic activity (HTRF); conditions: EGFR Del19-T790M, 1 mM ATP, 1 h, room temperature, read-out: IC50 (nM) @Del19-T790M
T5 construct: purchased Carna Bio
Method in brief: as §1

EGFR L858R = biological target: T6, EGFR L858R (Homo sapiens, UniProt P00533, L858R); experiment: Inhibition of EGFR L858R biochemical enzymatic activity (HTRF); conditions: 1 mM ATP, 1 h, room temperature, read-out: IC50 (nM) @L858R
T6 construct: purchased Carna Bio
Method in brief: as §1

EGFR L858R/T790M = biological target: T7, EGFR L858R/T790M (Homo sapiens, UniProt P00533, L858R/T790M); experiment: Inhibition of EGFR L858R/T790M biochemical enzymatic activity (HTRF); conditions: EGFR L858R-T790M, 1 mM ATP, 1 h, room temperature, read-out: IC50 (nM) @L858R-T790M
T7 construct: purchased Carna Bio
Method in brief: as §1

EGFR Exon19Del = biological target: T8, EGFR Exon19Del (Homo sapiens, UniProt P00533, DEL746-750); experiment: Inhibition of EGFR Exon19Del biochemical enzymatic activity (HTRF); conditions: EGFR Del19, 1 mM ATP, 1 h, room temperature, read-out: IC50 @Del19
T8 construct: purchased Carna Bio
Method in brief: as §1

EGFR (C797S L858R) = biological target: T9, EGFR (C797S L858R) (Homo sapiens, UniProt P00533, C797S/L858R); experiment: Inhibition of EGFR (C797S L858R) biochemical enzymatic activity (HTRF); conditions: EGFR L858-C797S, 1 mM ATP, 1 h, room temperature, read-out: IC50 (nM) @L858-C797S
T9 construct: purchased signalchem
Method in brief: as §1

PC-9 = experiment: Cell proliferation assay, PC-9 cells (CellTiter-Glo, 72 hours); type: cell-based; conditions: PC9 cells, CellTiter-Glo, read-out: PC9 GI50
Method in brief: as §2

[3] = BaF3 cells, EGFR DEL19-C797S, read-out: DEL19-C797S/BaF3 GI50
[4] = BaF3 cells, EGFR DEL19-T790-C797S, read-out: DEL19-T790-C797S/BaF3 GI50
[5] = BaF3 cells, EGFR L858R, read-out: L858R/BaF3 GI50
[6] = BaF3 cells, EGFR L858R-C797S, read-out: L858R-C797S/BaF3 GI50
[7] = BaF3 cells, EGFR L858R-T790-C797S, read-out: L858R-T790-C797S/BaF3 GI50
[8] = BaF3 cells, EGFR L858R-T790M, read-out: L858R-T790M/BaF3 GI50
[9] = EGFR DEL19-T790M, read-out: DEL19-T790M GI50
[10] = Homo sapiens, A-431, A-431 cells

T1 sequence (P00533 with tags, fused parts or gaps DEL746-750/C797S limits assumed): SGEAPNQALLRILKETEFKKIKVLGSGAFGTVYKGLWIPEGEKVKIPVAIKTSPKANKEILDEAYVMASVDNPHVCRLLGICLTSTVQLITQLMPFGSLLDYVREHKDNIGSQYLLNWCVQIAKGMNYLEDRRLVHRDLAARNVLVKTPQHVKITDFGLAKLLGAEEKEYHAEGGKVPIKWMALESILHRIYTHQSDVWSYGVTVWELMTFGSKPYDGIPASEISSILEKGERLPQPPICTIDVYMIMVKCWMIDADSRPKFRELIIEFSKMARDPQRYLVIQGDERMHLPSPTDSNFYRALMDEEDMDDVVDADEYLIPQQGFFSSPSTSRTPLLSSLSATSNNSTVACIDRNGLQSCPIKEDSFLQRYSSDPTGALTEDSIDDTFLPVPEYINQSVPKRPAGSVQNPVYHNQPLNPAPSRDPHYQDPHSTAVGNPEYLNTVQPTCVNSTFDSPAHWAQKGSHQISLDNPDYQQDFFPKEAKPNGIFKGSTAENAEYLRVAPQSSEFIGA
T3 sequence (P00533 with tags, fused parts or gaps DEL746-750/T790M/C797S limits assumed): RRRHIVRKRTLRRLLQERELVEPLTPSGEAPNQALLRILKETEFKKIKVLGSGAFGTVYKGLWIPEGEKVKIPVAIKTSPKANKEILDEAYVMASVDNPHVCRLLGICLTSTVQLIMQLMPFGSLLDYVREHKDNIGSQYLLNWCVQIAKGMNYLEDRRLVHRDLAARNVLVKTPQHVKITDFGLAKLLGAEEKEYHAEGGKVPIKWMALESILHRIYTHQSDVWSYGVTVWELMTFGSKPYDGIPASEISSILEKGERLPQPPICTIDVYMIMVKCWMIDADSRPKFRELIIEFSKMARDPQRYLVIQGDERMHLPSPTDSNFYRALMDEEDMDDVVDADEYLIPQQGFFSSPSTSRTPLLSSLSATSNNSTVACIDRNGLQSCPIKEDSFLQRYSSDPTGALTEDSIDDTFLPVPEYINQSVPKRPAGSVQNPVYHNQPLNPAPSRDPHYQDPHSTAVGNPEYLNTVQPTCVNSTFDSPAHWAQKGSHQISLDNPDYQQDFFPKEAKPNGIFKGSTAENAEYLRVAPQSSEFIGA
T2 sequence (P00533 25-1210): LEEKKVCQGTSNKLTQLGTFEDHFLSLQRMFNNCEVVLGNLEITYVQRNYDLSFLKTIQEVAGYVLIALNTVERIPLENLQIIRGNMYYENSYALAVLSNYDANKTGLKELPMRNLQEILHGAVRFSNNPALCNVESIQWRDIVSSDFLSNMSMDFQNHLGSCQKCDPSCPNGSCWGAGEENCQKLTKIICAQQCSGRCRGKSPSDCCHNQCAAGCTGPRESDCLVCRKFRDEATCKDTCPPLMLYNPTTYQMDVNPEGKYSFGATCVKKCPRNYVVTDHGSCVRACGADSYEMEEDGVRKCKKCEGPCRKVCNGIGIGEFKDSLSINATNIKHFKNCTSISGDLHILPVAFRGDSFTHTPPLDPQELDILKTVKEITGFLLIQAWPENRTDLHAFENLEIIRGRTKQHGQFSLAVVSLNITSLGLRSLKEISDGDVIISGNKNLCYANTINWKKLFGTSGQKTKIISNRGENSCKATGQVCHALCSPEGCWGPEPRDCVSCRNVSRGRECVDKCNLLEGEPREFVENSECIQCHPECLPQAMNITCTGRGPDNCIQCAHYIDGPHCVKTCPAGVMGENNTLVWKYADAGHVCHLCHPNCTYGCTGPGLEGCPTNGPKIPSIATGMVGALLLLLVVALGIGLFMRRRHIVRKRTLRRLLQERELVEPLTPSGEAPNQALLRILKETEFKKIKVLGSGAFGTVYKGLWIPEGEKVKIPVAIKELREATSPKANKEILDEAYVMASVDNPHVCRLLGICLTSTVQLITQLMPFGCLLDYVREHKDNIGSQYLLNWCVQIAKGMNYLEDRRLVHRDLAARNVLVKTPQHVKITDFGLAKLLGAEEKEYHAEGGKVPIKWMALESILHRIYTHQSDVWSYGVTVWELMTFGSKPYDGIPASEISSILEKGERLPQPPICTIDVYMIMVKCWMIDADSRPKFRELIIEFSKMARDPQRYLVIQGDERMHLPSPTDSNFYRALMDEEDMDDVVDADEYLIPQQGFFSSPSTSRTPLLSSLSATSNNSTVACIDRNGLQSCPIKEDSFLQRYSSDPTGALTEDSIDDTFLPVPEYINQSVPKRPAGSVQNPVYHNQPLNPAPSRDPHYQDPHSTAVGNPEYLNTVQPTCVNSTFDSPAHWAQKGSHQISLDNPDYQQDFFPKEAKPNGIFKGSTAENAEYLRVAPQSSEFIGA
T5 sequence (P00533 with tags, fused parts or gaps DEL746-750/T790M limits assumed): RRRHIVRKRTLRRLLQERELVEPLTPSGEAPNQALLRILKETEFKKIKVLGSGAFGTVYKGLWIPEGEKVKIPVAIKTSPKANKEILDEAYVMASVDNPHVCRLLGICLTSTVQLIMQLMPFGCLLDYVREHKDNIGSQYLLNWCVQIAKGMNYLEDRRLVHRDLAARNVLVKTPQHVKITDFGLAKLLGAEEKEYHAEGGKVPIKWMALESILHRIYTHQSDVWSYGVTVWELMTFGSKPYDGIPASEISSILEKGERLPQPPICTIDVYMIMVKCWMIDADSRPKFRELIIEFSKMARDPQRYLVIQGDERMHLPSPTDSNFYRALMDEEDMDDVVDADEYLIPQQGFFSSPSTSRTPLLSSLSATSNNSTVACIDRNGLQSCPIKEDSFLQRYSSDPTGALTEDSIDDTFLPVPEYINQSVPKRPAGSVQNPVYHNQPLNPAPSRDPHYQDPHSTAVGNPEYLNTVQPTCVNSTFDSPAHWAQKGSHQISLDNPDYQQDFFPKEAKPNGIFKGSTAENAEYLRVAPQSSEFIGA
T6 sequence (P00533 25-1210 L858R): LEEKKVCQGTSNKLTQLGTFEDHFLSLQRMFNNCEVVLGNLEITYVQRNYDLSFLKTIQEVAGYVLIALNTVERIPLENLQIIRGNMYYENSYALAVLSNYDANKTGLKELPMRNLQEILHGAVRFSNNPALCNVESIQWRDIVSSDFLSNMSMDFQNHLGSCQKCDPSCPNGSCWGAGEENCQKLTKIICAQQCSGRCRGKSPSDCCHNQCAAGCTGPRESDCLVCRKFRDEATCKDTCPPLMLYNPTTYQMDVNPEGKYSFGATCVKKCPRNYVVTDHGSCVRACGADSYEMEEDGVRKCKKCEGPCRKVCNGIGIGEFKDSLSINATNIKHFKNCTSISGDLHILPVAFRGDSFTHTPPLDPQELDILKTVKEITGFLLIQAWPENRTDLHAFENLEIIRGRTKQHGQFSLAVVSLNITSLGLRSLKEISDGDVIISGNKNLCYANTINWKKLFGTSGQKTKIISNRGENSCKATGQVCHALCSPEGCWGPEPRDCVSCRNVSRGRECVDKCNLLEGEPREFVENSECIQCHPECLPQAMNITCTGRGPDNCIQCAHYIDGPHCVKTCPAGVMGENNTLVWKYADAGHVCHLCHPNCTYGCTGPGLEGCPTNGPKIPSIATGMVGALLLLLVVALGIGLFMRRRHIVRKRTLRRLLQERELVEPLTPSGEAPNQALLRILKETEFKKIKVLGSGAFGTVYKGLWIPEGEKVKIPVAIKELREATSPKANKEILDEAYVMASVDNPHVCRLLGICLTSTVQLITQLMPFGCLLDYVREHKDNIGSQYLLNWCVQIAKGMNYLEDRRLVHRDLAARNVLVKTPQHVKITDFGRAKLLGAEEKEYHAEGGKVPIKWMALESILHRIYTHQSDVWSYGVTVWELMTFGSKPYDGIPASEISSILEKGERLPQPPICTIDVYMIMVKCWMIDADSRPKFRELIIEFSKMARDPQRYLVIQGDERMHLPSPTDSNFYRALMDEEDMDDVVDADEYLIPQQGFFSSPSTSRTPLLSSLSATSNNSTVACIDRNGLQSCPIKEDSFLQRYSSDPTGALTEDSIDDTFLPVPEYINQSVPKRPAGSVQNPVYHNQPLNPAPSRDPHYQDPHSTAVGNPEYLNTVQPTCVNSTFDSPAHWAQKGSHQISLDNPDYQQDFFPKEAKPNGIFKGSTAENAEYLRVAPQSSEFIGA
T8 sequence (P00533 with tags, fused parts or gaps DEL746-750 limits assumed): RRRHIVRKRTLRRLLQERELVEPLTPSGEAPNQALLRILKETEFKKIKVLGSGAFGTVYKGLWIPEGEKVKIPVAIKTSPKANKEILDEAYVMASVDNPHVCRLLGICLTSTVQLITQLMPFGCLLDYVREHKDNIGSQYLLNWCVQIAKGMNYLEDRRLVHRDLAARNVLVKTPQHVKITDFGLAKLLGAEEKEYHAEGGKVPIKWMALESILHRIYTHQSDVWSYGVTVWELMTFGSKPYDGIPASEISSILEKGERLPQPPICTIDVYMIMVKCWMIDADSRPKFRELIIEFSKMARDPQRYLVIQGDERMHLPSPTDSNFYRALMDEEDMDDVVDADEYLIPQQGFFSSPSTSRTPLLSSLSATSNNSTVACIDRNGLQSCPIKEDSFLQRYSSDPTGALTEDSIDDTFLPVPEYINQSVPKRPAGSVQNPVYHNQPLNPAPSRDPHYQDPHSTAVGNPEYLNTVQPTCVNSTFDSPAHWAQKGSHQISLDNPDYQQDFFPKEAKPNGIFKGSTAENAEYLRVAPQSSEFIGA

| Compound | GI50 (A-431; A-431 cells) | IC50 (EGFR (d746-750 C797S)) | IC50 (EGFR wild type) | IC50 [1] | GI50 [2, 3] | GI50 [2, 4] | GI50 [2, 5] | GI50 [2, 6] | GI50 [2, 7] | GI50 [2, 8] | GI50 [2, 9] | IC50 (EGFR[T790M/C797S/L858R]) | IC50 (EGFR Exon19Del/T790M) | IC50 (EGFR L858R) | IC50 (EGFR L858R/T790M) | IC50 (EGFR Exon19Del) | IC50 (EGFR (C797S L858R)) | GI50 (PC-9) | GI50 (A-431; [10]) |
| --- | --- | --- | --- | --- | --- | --- | --- | --- | --- | --- | --- | --- | --- | --- | --- | --- | --- | --- | --- |
| CN1CCN(C2CN(c3ccc4nc5n(c4c3)C34CCC(CN(CCOc6c(cnn6C)-c6cc(cn(C)c6=O)C(=O)N5)C3)C4)C2)CC1 (single isomer, unassigned) [Example A70B] | 744 nM | 0.91 nM | 19 nM | 2.1 nM | 0.66 nM | 1 nM | 0.76 nM | 2.7 nM | 0.91 nM | 5.9 nM | 1.6 nM | 2.1 nM | 1.9 nM | 4.7 nM | 1.8 nM | 1.6 nM | 3.6 nM | 2.7 nM | – |
| Cn1ncc2c1OCCN1CC3CCC(C3)(C1)n1c(nc3ccc(N4CCN(C5COC5)CC4)cc31)NC(=O)c1cc-2c(=O)n(C)c1 (single isomer, unassigned) [Example A71B] | 830 nM | 1.3 nM | 319 nM | 2.4 nM | 0.66 nM | 2 nM | 2.9 nM | 4.2 nM | 2.2 nM | 8 nM | 1.9 nM | 2.9 nM | 2.5 nM | 14 nM | 2.8 nM | 1.8 nM | 20 nM | 6.6 nM | – |
| CN1CCCC12CN(c1ccc3nc4n(c3c1)C13CCC(CN(CCOc5c(cnn5C)-c5cc(cn(C)c5=O)C(=O)N4)C1)C3)C2 (single isomer, unassigned) [Example A76A] | 7930 nM | 503 nM | > 5000 nM | 4860 nM | 272 nM | 564 nM | 536 nM | 304 nM | 980 nM | 942 nM | 584 nM | > 5000 nM | > 5000 nM | 2860 nM | > 5000 nM | 450 nM | 4300 nM | 810 nM | – |
| CN1CCC2(CC1)CN(c1ccc3nc4n(c3c1)C13CCC(CN(CCOc5c(cnn5C)-c5cc(cn(C)c5=O)C(=O)N4)C1)C3)C2 (single isomer, unassigned) [Example A77B] | – | 2.1 nM | 7.3 nM | 3.6 nM | 0.72 nM | 0.91 nM | 0.89 nM | 1.4 nM | 1.3 nM | 2.4 nM | 0.85 nM | 3.4 nM | 3.8 nM | 3.5 nM | 3.8 nM | 2.9 nM | 3.7 nM | 2.1 nM | 310 nM |
| CN1CCC2(C1)CN(c1ccc3nc4n(c3c1)C13CCC(CN(CCOc5c(cnn5C)-c5cc(cn(C)c5=O)C(=O)N4)C1)C3)C2 (single isomer, unassigned) [Example A78A] | 3050 nM | 494 nM | > 5000 nM | 3750 nM | 102 nM | 269 nM | 329 nM | 157 nM | 402 nM | 380 nM | 250 nM | > 5000 nM | > 5000 nM | 2040 nM | > 5000 nM | 508 nM | > 5000 nM | 249 nM | – |
| CN1CCC2(C1)CN(c1ccc3nc4n(c3c1)C13CCC(CN(CCOc5c(cnn5C)-c5cc(cn(C)c5=O)C(=O)N4)C1)C3)C2 (single isomer, unassigned) [Example A78B] | 434 nM | 0.91 nM | 11 nM | 1.6 nM | 0.51 nM | 0.82 nM | 0.87 nM | 0.74 nM | 0.9 nM | 1 nM | 0.75 nM | 1.4 nM | 2.7 nM | 2.4 nM | 2.4 nM | 1.2 nM | 2.2 nM | 2.4 nM | – |

Continued by falling IC50 (EGFR (d746-750 C797S)), values first:

| GI50 (A-431; A-431 cells) | IC50 (EGFR (d746-750 C797S)) | IC50 (EGFR wild type) | IC50 [1] | GI50 [2, 3] | GI50 [2, 4] | GI50 [2, 5] | GI50 [2, 6] | GI50 [2, 7] | GI50 [2, 8] | GI50 [2, 9] | IC50 (EGFR[T790M/C797S/L858R]) | IC50 (EGFR Exon19Del/T790M) | IC50 (EGFR L858R) | IC50 (EGFR L858R/T790M) | IC50 (EGFR Exon19Del) | IC50 (EGFR (C797S L858R)) | GI50 (PC-9) | GI50 (A-431; [10]) | Compound |
| --- | --- | --- | --- | --- | --- | --- | --- | --- | --- | --- | --- | --- | --- | --- | --- | --- | --- | --- | --- |
| – | 5 nM | 126 nM | 11 nM | 0.7 nM | 10 nM | 12 nM | 8.5 nM | 14 nM | 37 nM | 13 nM | 8.3 nM | 10 nM | 27 nM | 12 nM | 6.3 nM | 13 nM | 23 nM | 1280 nM | CN1CCC2CN(c3ccc4nc5n(c4c3)C34CCC(CN(CCOc6c(cnn6C)-c6cc(cn(C)c6=O)C(=O)N5)C3)C4)CC21 (single isomer, unassigned) [Example A79B] |
| 1640 nM | 3.5 nM | 206 nM | 4.4 nM | 0.78 nM | 12 nM | 13 nM | 7.6 nM | 34 nM | 39 nM | 12 nM | 6.9 nM | 4.9 nM | 39 nM | 7 nM | 4.2 nM | 27 nM | 23 nM | – | CN1CCCC12CN(c1ccc3nc4n(c3c1)C13CCC(CN(CCOc5c(cnn5C)-c5cc(cn(C)c5=O)C(=O)N4)C1)C3)C2 (single isomer, unassigned) [Example A76B] |
| – | 1.4 nM | 13 nM | 2.1 nM | 0.54 nM | 1.9 nM | 1.8 nM | 3.5 nM | 1.9 nM | 8 nM | 1.5 nM | 1.9 nM | 2.2 nM | 4 nM | 1.9 nM | 1.3 nM | 2.9 nM | 7.3 nM | 1070 nM | CN1CC2(CCN(c3ccc4nc5n(c4c3)C34CCC(CN(CCOc6c(cnn6C)-c6cc(cn(C)c6=O)C(=O)N5)C3)C4)C2)C1 (single isomer, unassigned) [Example A73B] |
| – | 0.92 nM | 5.2 nM | 2.2 nM | 0.51 nM | 0.58 nM | 0.88 nM | 1.9 nM | 0.51 nM | 1.6 nM | 0.51 nM | 1.3 nM | 2.4 nM | 2.4 nM | 1.8 nM | 1.8 nM | 2 nM | 2.1 nM | 731 nM | CN(C)CC1(F)CN(c2ccc3nc4n(c3c2)C23CCC(CN(CCOc5c(cnn5C)-c5cc(cn(C)c5=O)C(=O)N4)C2)C3)C1 (single isomer, unassigned) [Example A72B] |
